Test results: paper PMC10892375, “Determination of the Cannabinoid CB1 Receptor’s Positive Allosteric Modulator Binding Site through Mutagenesis Studies” (Pharmaceuticals, 2024)

Tests used:
Format in all cases: cell-based
[1] = biological target: T1, hCB1 mutant Y172A^2.59 (Homo sapiens, UniProt P21554, Y172A); experiment: pIRES G protein dissociation BRET assay, Y172A mutant; conditions: for G protein dissociation, AUC of 10 μM compound (maximal response): 10 μM ligand alone
T1 construct: expressed in transfected cells; host or cells: HEK293
T1 sequence (P21554 whole entry Y172A): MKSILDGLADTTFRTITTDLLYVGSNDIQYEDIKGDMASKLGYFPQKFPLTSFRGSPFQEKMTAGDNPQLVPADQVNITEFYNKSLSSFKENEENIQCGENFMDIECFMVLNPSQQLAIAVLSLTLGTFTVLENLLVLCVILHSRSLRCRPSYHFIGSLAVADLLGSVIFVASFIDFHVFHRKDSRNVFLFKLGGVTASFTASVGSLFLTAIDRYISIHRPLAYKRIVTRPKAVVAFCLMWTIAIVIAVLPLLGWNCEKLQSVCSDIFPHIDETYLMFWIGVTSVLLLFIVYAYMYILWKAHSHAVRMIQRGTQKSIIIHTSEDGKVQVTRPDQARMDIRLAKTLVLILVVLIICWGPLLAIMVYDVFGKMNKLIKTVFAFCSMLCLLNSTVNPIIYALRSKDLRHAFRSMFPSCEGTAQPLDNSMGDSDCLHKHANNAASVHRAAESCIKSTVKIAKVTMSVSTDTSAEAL
Protocol: (§1) Mutagenesis studies using the pIRES G protein dissociation assay were performed using human embryonic kidney 293 (HEK293) wild-type cells transiently transfected with pplss-3HA-hCB1 [31] or modified receptor. All cells were cultured in Dulbecco’s Modified Eagle’s Medium (DMEM) supplemented with 10% fetal bovine serum (FBS), grown in […] vented-cap flasks, and maintained in a 37° C incubator at 5% CO2.
(§2) Mutants of pplss-3HA-hCB1 (WT, pEF-V4-HisA (pEF4a) construct) were generated using a modified QuikChange® (Stratagene, San Diego, CA, USA) site-directed mutagenesis approach using KAPA HiFi Hotstart Polymerase (KAPA Biosystems, Roche, Basel, Switzerland). Briefly, single-stranded primers used to modify one or two base pairs within the target amino acid using PCR were purchased from Integrated DNA Technologies (IDT, Coralville, IA, USA). All pplss-hCB1 mutants were generated using the pplss-3HA-hCB1 pEF4a as parental DNA. PCR products were generated using recommended cycling conditions and treated with Dpn1 (New England Biolabs, Ipswich, MA, USA) overnight at 37° C to digest methylated parental DNA. PCR products were electrophoresed and run on an agarose gel (1% (w.v^−1) agarose, HydraGene, Piscataway, NJ, USA) containing 0.25 μg/mL ethidium bromide (Sigma-Aldrich, St. Louis, MO, USA). Gels were run in 40 mM TRIS-acetate buffer containing […] (pH 8.3) at 100 V for 30 min, maximum current and included a 1kb+ DNA ladder (Invitrogen, Thermo Fisher Scientific, Carlsbad, CA, USA) for reference. Gels were imaged using an UVTech Alliance Q9 Mini transilluminator (UVTech Alliance, Cambridge, UK). Digested products were then used to transform NEB 5α competent E. coli cells in accordance with manufacturer’s instructions. Briefly, transformed PCR products were grown overnight on 8.5 mL Luria Broth agar plates (containing 100 μg/mL ampicillin) at 37° C. Single bacterial colonies were picked and inoculated in Luria Broth (containing 100 μg/mL ampicillin) and grown overnight in a shaking incubator at 37° C. Plasmids were then harvested and purified using a Qiagen miniprep kit (Qiagen, Hilden, Germany) and validated using sequencing (Genetics Analysis Service, University of Otago, Dunedin, New Zealand).
(§3) Dissociation of the G protein heterotrimer, specifically Gαi1, Gβ1, and Gγ2, was investigated using a bioluminescence resonance energy transfer (BRET) assay with the pIRES biosensor first described by and adapted by.
(§4) Briefly, 3 × 10^6 WT HEK293 cells were seeded into 10 cm culture dishes (Corning, Corning, NY, USA; one dish for the control receptor and one for each modified receptor) and incubated at 37 °C for 24 h to gain 50–60% confluency. Culture medium was then replaced and transfection mixtures containing 3 μg pIRES vector and 1 μg receptor (either pplss-hCB1 or modified receptor) were prepared (4 μg total DNA). Plasmids were initially diluted in sterile Milli-Q water before being diluted in OptiMEM reduced serum medium (Thermo Fisher Scientific, Waltham, MA, USA) and combined with […] polyethylenimine (PEI)-max (1:9 DNA:PEI-max ratio) and incubated at room temperature for 20 min. Transfection mixtures were then added to cells via dropwise addition, and cells were incubated at 37 °C for 24 h. Transfected cells were lifted and plated at 50,000 cells/well into poly-d-lysine (PDL; Sigma-Aldrich) coated white 96-well CulturPlates (PerkinElmer, Waltham, MA, USA) and incubated for a further 24 h at 37 °C.
(§5) To assay, the culture medium was aspirated and cells were washed with phosphate buffered saline (PBS) and replaced with BRET assay medium (phenol red free DMEM containing 25 mM HEPES and supplemented with 1 mg/mL bovine serum albumin; BSA, MP Biomedicals, Auckland, New Zealand) for 30 min prior to drug addition (serum starve). Drugs were prepared at 10 × concentration in BRET assay medium, combined in a polypropylene V-bottom plate, and incubated at 37° C prior to drug stimulation.

[2] = biological target: T2, hCB1 mutant S173A^2.60 (Homo sapiens, UniProt P21554, S173A); experiment: pIRES G protein dissociation BRET assay, S173A mutant; conditions: for G protein dissociation, AUC of 10 μM compound (maximal response): 10 μM ligand alone
T2 construct: expressed in transfected cells; host or cells: HEK293
T2 sequence (P21554 whole entry S173A): as the sequence (P21554 whole entry Y172A) above, with A172Y, S173A counted along it
Protocol: as §1, §2, §3, §4, §5

[3] = biological target: T3, hCB1 mutant F191A^3.27 (Homo sapiens, UniProt P21554, F191A); experiment: pIRES G protein dissociation BRET assay, F191A mutant; conditions: for G protein dissociation, AUC of 10 μM compound (maximal response): 10 μM ligand alone
T3 construct: expressed in transfected cells; host or cells: HEK293
T3 sequence (P21554 whole entry F191A): as the sequence (P21554 whole entry Y172A) above, with A172Y, F191A counted along it
Protocol: as §1, §2, §3, §4, §5

[4] = biological target: T4, hCB1 mutant I245A^4.54 (Homo sapiens, UniProt P21554, I245A); experiment: pIRES G protein dissociation BRET assay, I245A mutant
T4 construct: expressed in transfected cells; host or cells: HEK293
T4 sequence (P21554 whole entry I245A): as the sequence (P21554 whole entry Y172A) above, with A172Y, I245A counted along it
Protocol: as §1, §2, §3, §4, §5

[5] = biological target: T5, hCB1 mutant R148A^12.51 (Homo sapiens, UniProt P21554, R148A); experiment: pIRES G protein dissociation BRET assay, R148A mutant
T5 construct: expressed in transfected cells; host or cells: HEK293
T5 sequence (P21554 whole entry R148A): as the sequence (P21554 whole entry Y172A) above, with R148A, A172Y counted along it
Protocol: as §1, §2, §3, §4, §5

[6] = biological target: T6, hCB1 mutant H154A^2.41 (Homo sapiens, UniProt P21554, H154A); experiment: pIRES G protein dissociation BRET assay, H154A mutant
T6 construct: expressed in transfected cells; host or cells: HEK293
T6 sequence (P21554 whole entry H154A): as the sequence (P21554 whole entry Y172A) above, with H154A, A172Y counted along it
Protocol: as §1, §2, §3, §4, §5

[7] = biological target: T7, hCB1 mutant K232A^4.41 (Homo sapiens, UniProt P21554, K232A); experiment: pIRES G protein dissociation BRET assay, K232A mutant; conditions: for G protein dissociation, AUC of 10 μM compound (maximal response): 10 μM ligand alone
T7 construct: expressed in transfected cells; host or cells: HEK293
T7 sequence (P21554 whole entry K232A): as the sequence (P21554 whole entry Y172A) above, with A172Y, K232A counted along it
Protocol: as §1, §2, §3, §4, §5

[8] = biological target: T8, hCB1 mutant L209A^3.45 (Homo sapiens, UniProt P21554, L209A); experiment: pIRES G protein dissociation BRET assay, L209A mutant; conditions: for G protein dissociation, AUC of 10 μM compound (maximal response): 10 μM ligand alone
T8 construct: expressed in transfected cells; host or cells: HEK293
T8 sequence (P21554 whole entry L209A): as the sequence (P21554 whole entry Y172A) above, with A172Y, L209A counted along it
Protocol: as §1, §2, §3, §4
as §5, with “stimulation. […]” for “stimulation.”

[9] = biological target: T9, hCB1 mutant R220A^3.56 (Homo sapiens, UniProt P21554, R220A); experiment: pIRES G protein dissociation BRET assay, R220A mutant; conditions: for G protein dissociation, AUC of 10 μM compound (maximal response): 10 μM ligand alone
T9 construct: expressed in transfected cells; host or cells: HEK293
T9 sequence (P21554 whole entry R220A): as the sequence (P21554 whole entry Y172A) above, with A172Y, R220A counted along it
Protocol: as §1, §2, §3, §4, §5

[10] = biological target: T10, hCB1 mutant L404A^8.50 (Homo sapiens, UniProt P21554, L404A); experiment: pIRES G protein dissociation BRET assay, L404A mutant; conditions: for G protein dissociation, AUC of 10 μM compound (maximal response): 10 μM ligand alone
T10 construct: expressed in transfected cells; host or cells: HEK293
T10 sequence (P21554 whole entry L404A): as the sequence (P21554 whole entry Y172A) above, with A172Y, L404A counted along it
Protocol: as §1, §2, §3, §4, §5

[11] = 10 μM CP55940 in the presence of 10 μM ZCZ011
[12] = in the presence of 10 μM GAT228
[13] = in the presence of 10 μM GAT229
[14] = top of the curve (maximal response)

## Cc1ccc2c(C(C[N+](=O)[O-])c3cccs3)c(-c3ccccc3)[nH]c2c1 (stereo not shown) [ZCZ011, 6-Methyl-3-(2-nitro-1-(thiophen-2-yl)ethyl)-2-phenyl-1 H-indole]
[1]
  G protein dissociation, AUC of 10 μM compound (maximal response): −142.1 ± 14.4
[2]
  G protein dissociation, AUC of 10 μM compound (maximal response): −144.2 ± 6.8
[3]
  G protein dissociation, AUC of 10 μM compound (maximal response): 35.0 ± 8.4
[3]; 10 μM, result in words
  Allosteric agonism: G protein dissociation in the absence of an orthosteric ligand: abolished
[4]; 10 μM ligand alone
  G protein dissociation, AUC of 10 μM compound (maximal response): −130.4 ± 12.9
[5]; 10 μM ligand alone
  G protein dissociation, AUC of 10 μM compound (maximal response): −150.1 ± 10.2
[6]; 10 μM ligand alone
  G protein dissociation, AUC of 10 μM compound (maximal response): −129.4 ± 5.1
[7]
  G protein dissociation, AUC of 10 μM compound (maximal response): −140.0 ± 7.3
[8]
  G protein dissociation, AUC of 10 μM compound (maximal response): −34.4 ± 2.9
[9]
  G protein dissociation, AUC of 10 μM compound (maximal response): −95.7 ± 7.7
[10]
  G protein dissociation, AUC of 10 μM compound (maximal response): −85.2 ± 7.3

## CCCCCCC(C)(C)c1ccc([C@@H]2C[C@H](O)CC[C@H]2CCCO)c(O)c1 [CP55940]
[1]; [11]
  G protein dissociation, AUC, 10 μM CP55940 + 10 μM ZCZ011: −305.2 ± 5.7
[1]
  G protein dissociation, AUC of 10 μM compound (maximal response): −284.7 ± 8.4
[1]; [12]
  EMAX, CP55940 + 10 μM GAT228: −298.9 ± 5.4 ∆BRET.sec
[1]; [13]
  EMAX, CP55940 + 10 μM GAT229: −309.0 ± 3.5 ∆BRET.sec
[1]; [14]
  EMAX, CP55940 Alone: −273.2 ± 6.9 ∆BRET.sec
[2]; [11]
  G protein dissociation, AUC, 10 μM CP55940 + 10 μM ZCZ011: −186.8 ± 5.5
[2]
  G protein dissociation, AUC of 10 μM compound (maximal response): −146.2 ± 5.5
[2]; [12]
  EMAX, CP55940 + 10 μM GAT228: −176.1 ± 6.9 ∆BRET.sec
[2]; [13]
  EMAX, CP55940 + 10 μM GAT229: −186.4 ± 7.5 ∆BRET.sec
[2]; [14]
  EMAX, CP55940 Alone: −143.0 ± 5.7 ∆BRET.sec
[3]; [11]
  G protein dissociation, AUC, 10 μM CP55940 + 10 μM ZCZ011: −134.7 ± 12.4
[3]
  G protein dissociation, AUC of 10 μM compound (maximal response): −117.8 ± 7.5
[3]; [12]
  EMAX, CP55940 + 10 μM GAT228: −123.9 ± 7.4 ∆BRET.sec
[3]; [13]
  EMAX, CP55940 + 10 μM GAT229: −119.1 ± 7.8 ∆BRET.sec
[3]; [14]
  EMAX, CP55940 Alone: −117.3 ± 6.1 ∆BRET.sec
[4]; [11]
  G protein dissociation, AUC, 10 μM CP55940 + 10 μM ZCZ011: −183.2 ± 7.2
[4]; [12]
  EMAX, CP55940 + 10 μM GAT228: −163.7 ± 8.2 ∆BRET.sec
[4]; [13]
  EMAX, CP55940 + 10 μM GAT229: −182.9 ± 7.0 ∆BRET.sec
[4]; [14]
  EMAX, CP55940 Alone: −150.1 ± 9.8 ∆BRET.sec
[5]; [11]
  G protein dissociation, AUC, 10 μM CP55940 + 10 μM ZCZ011: −237.3 ± 11.6
[5]; [12]
  EMAX, CP55940 + 10 μM GAT228: −218.2 ± 8.5 ∆BRET.sec
[5]; [13]
  EMAX, CP55940 + 10 μM GAT229: −243.9 ± 5.4 ∆BRET.sec
[5]; [14]
  EMAX, CP55940 Alone: −175.6 ± 11.4 ∆BRET.sec
[6]; [11]
  G protein dissociation, AUC, 10 μM CP55940 + 10 μM ZCZ011: −189.5 ± 8.5
[6]; [12]
  EMAX, CP55940 + 10 μM GAT228: −200.5 ± 11.6 ∆BRET.sec
[6]; [13]
  EMAX, CP55940 + 10 μM GAT229: −210.6 ± 10.1 ∆BRET.sec
[6]; [14]
  EMAX, CP55940 Alone: −151.8 ± 5.9 ∆BRET.sec
[7]; [11]
  G protein dissociation, AUC, 10 μM CP55940 + 10 μM ZCZ011: −194.9 ± 7.2
[7]
  G protein dissociation, AUC of 10 μM compound (maximal response): −167.7 ± 9.6
[7]; [12]
  EMAX, CP55940 + 10 μM GAT228: −181.9 ± 8.6 ∆BRET.sec
[7]; [13]
  EMAX, CP55940 + 10 μM GAT229: −194.9 ± 9.0 ∆BRET.sec
[7]; [14]
  EMAX, CP55940 Alone: −160.6 ± 7.6 ∆BRET.sec
[8]; [11]
  G protein dissociation, AUC, 10 μM CP55940 + 10 μM ZCZ011: −71.3 ± 4.2
[8]
  G protein dissociation, AUC of 10 μM compound (maximal response): −42.7 ± 2.8
[8]; [12]
  EMAX, CP55940 + 10 μM GAT228: −43.2 ± 4.5 ∆BRET.sec
[8]; [13]
  EMAX, CP55940 + 10 μM GAT229: −51.9 ± 2.8 ∆BRET.sec
[8]; [14]
  EMAX, CP55940 Alone: −39.8 ± 1.1 ∆BRET.sec
[9]; [11]
  G protein dissociation, AUC, 10 μM CP55940 + 10 μM ZCZ011: −137.8 ± 5.0
[9]
  G protein dissociation, AUC of 10 μM compound (maximal response): −112.1 ± 2.9
[9]; [12]
  EMAX, CP55940 + 10 μM GAT228: −140.1 ± 13.5 ∆BRET.sec
[9]; [13]
  EMAX, CP55940 + 10 μM GAT229: −144.6 ± 10.4 ∆BRET.sec
[9]; [14]
  EMAX, CP55940 Alone: −110.8 ± 2.8 ∆BRET.sec
[10]; [11]
  G protein dissociation, AUC, 10 μM CP55940 + 10 μM ZCZ011: −133.5 ± 5.6
[10]
  G protein dissociation, AUC of 10 μM compound (maximal response): −110.3 ± 3.7
[10]; [12]
  EMAX, CP55940 + 10 μM GAT228: −115.1 ± 8.3 ∆BRET.sec
[10]; [13]
  EMAX, CP55940 + 10 μM GAT229: −122.3 ± 7.0 ∆BRET.sec
[10]; [14]
  EMAX, CP55940 Alone: −103.1 ± 3.6 ∆BRET.sec
